The text below walks through data of patent US20250213584A1, “ERCC1-XPF COMPLEX INHIBITOR COMPOUNDS AND THE USE THEREOF IN THE TREATMENT OF CANCER” (FUNDAÇÃO D. ANNA DE SOMMER CHAMPALIMAUD E DR. CARLOS MONTEZ …, priority 2023, published 2025).

As usually defined, the IC50 is the concentration that gives 50% inhibition. High values mean weaker potency in that assay, low ones greater potency in that assay.

Test [1] deals with H1299 cells. As to the kind of experiment: Crystal violet (CV) staining assay, cisplatin cytotoxicity. The test is classed as cell-based, human. The following applies: 72-h incubation. Here is the method:
To evaluate the cisplatin cytotoxicity effect in the selected H1299 cell line (highest ERCC1 expression), a concentration-response profile was established resorting to two mechanistically different cell viability assays, the CV staining and the MTS reduction assays (FIG. 9). The IC50 values for cisplatin were also calculated for a 72-h incubation period based on its dose-response profile. The cytotoxicity of cisplatin in H1299 cells was evaluated according to a previously described crystal violet (CV) staining protocol. This assay allows the colorimetric determination of adherent cells by staining their nucleus. First, cells were inoculated at a density of approximately 3×10^3 cells/well in 200 μL of complete culture medium in 96-well plates. After adherence (24 h), culture medium was renewed, and the cells were incubated with a range of 1-30 μM of cisplatin for another 72 h. After incubation, cells were washed with warm PBS to remove non-adherent cells (non-viable cells). The adherent cells were then fixated with ice-cold 96% ethanol for 10 min and stained with 0.1% crystal violet in 10% ethanol for 5 min. […] Absorbance was measured at 595 nm (OD595) using a SPECTROstar OMEGA microplate reader. […] The IC50 values were calculated based on the obtained concentration-response curves using GraphPad Prism® 9.0 (GraphPad Software, Inc., La Jolla, CA, USA).

Test [2] has as its system H1299 cells. Kind of test: MTS reduction assay, cisplatin cytotoxicity. Format: cell-based, human. Here is the method:
To evaluate the cisplatin cytotoxicity effect in the selected H1299 cell line (highest ERCC1 expression), a concentration-response profile was established resorting to two mechanistically different cell viability assays, the CV staining and the MTS reduction assays (FIG. 9). The IC50 values for cisplatin were also calculated for a 72-h incubation period based on its dose-response profile. The 3-(4,5-dimethylthiazol-2-yl)-5-(3-carboxymethoxyphenyl)-2-(4-sulfophenyl)-2H-tetrazolium salt (MTS) reduction assay was carried out as a confirmatory assay of cell viability. This methodology is commonly used in in vitro toxicology and is based on the enzymatic reduction of a tetrazolium salt in viable cells by mitochondrial enzymes (NAD-dependent dehydrogenase) with the formation of a colored formazan product. […] H1299 cells were incubated for 2 h30 with the MTS reagent and the absorbance was measured at 490 nm and 690 nm (reference wavelength) using a SPECTROstar OMEGA microplate reader. Absorbance values presented by vehicle-treated control cells corresponded to 100% of cell viability. […] The IC50 was also calculated based on the concentration-response curve using GraphPad Prism® 9.0.

A further test concerns the target T1, ERCC1-XPF (Homo sapiens, UniProt Q92889).
T1 sequence (Q92889 1-916): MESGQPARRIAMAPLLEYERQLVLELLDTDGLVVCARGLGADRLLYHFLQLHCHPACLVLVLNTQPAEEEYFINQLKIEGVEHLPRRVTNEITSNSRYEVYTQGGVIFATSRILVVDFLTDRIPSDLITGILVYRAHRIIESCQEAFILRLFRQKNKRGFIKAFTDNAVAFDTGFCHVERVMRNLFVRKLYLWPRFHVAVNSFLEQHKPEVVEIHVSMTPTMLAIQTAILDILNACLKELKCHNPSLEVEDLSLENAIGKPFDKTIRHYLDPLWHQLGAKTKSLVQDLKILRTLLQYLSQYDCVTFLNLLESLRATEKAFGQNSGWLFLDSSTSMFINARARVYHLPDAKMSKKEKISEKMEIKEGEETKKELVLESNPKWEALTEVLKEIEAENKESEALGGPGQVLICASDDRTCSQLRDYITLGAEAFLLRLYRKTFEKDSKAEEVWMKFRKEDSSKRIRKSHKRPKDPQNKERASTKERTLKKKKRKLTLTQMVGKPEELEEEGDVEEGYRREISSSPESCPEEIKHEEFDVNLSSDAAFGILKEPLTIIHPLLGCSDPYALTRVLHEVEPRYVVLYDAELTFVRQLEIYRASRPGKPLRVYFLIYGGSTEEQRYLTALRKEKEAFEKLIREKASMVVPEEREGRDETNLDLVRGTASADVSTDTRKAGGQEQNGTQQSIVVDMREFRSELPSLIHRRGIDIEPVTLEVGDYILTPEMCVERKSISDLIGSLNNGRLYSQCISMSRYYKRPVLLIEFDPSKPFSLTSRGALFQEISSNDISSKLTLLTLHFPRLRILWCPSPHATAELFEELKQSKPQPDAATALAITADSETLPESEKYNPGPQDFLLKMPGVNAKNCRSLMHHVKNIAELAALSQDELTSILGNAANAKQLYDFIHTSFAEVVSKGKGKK
As to conditions: literature; cited from earlier work.

As to `N.N.[Cl][Pt][Cl]` [cisplatin], the results for the concentration for half-maximal inhibition (IC50) in the test on H1299 cells [1] and with H1299 cells [2] (72-h incubation) were 3 µM and 3.7 µM, respectively. The cell death in the test with H1299 cells [2] (cisplatin alone at 1 μM, 72 h) was 10-15%.

Turning to `COc1ccc2nc3cc(Cl)ccc3c(Nc3ccc(O)c(CN4CCN(C)CC4)c3)c2c1` [F06], the “disruption of ERCC1-XPF interaction” value at ERCC1-XPF was “ability to disrupt the interaction between ERCC1 and XPF”.
